# Data: US4839155A, “Iodotamoxifen derivatives and use for estrogen receptor-positive breast cancer detection and therapy” (National Research Development Corporation, priority 1986, dated 1989)
# What was measured:
# MCF-7 cells = assay: MCF-7 cell growth, % of control; assay type: cell-based, human; details: for activity at 1 µM / activity at 0.1 µM / activity at 0.01 µM: Homo sapiens, MCF7, 37° C., 24 hours, ± standard deviation of four samples, >100 = growth stimulating (estrogenic); for activity at 1 µM: 10^-6 M; for activity at 0.1 µM: 10^-7 M; for activity at 0.01 µM: 10^-8 M; for activity in MCF-7 cell growth tests (in words): evaluation of Table 2, compared with tamoxifen
# [1] = target: T1, estrogen receptor (MCF-7 whole cells) (Homo sapiens, UniProt P03372); assay: Relative binding affinity (RBA), MCF-7 whole cell assay, inhibition of (3H)estradiol binding; details: RBA = [I50](estradiol)/[I50](test compound) × 100; 37° C., 50 minutes, 10^-9 M (3H)estradiol
# T1 construct: host or cells: MCF-7 whole cells
# T1 sequence (P03372 1-595): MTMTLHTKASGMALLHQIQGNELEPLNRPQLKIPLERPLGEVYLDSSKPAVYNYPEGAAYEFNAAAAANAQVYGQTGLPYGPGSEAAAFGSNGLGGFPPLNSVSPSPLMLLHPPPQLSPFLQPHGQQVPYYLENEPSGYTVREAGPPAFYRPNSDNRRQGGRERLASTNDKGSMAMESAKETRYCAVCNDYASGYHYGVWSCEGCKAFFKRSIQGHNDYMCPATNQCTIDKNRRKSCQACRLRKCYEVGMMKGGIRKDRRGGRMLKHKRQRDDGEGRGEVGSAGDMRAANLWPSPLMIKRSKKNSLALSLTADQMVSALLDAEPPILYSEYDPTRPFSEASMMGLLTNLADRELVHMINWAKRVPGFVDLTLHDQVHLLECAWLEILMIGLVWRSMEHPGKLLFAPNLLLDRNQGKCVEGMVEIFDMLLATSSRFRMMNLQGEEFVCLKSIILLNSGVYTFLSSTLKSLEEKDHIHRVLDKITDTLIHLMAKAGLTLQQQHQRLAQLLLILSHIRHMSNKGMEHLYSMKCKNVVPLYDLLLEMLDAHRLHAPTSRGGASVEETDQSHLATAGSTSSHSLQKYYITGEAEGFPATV
# Protocol: A whole cell assay was then performed using the MCF-7 human breast cancer cell line obtained from the Michigan Cancer Foundation, Detroit, USA. MCF-7 cells were maintained at 37° C. in monolayer culture in closed T-25 dishes in mininal essential medium (MEM) supplemented with L-glutamine (0.6 mg/ml), gentamycin (40 micrograms/ml). penicillin (100 U/ml) streptomycin (100 micrograms/ml) and 10% inactivated fetal calf serum (inactivated for 1 hour at 56° C.). The MCF-7 cells were incubated at 37° C. for 50 minutes with 10^-9 M (^3 H)estradiol in the absence or presence of increasing amounts (10^-10 -10^-5 M) of the test compound or unlabelled estradiol (control). Bound compounds were then extracted with ethanol, and the amounts of estrogen receptor bound (^3 H) estradiol were measured. The RBA values were calculated as for the rat uterine cytosol.
# (§1) The higher the values in the rat uterine cytosol test the greater the antiestrogenic effect. In the whole cell test, on the other hand, the estrogen receptors are localised in the cell nucleus and therefore bound to DNA. In the whole cell test, a low value indicating poor binding to cell nucleus ER and consequently low estrogenicity, can be considered favorable.
# [2] = target: T2, estrogen receptor (rat uterine cytosol) (Rattus norvegicus, UniProt P06211); assay: Relative binding affinity (RBA), rat uterine cytosol, inhibition of (3H)estradiol binding; details: RBA = [I50](estradiol)/[I50](test compound) × 100; 18° C., 30 minutes, 5×10^-9 M (3H)estradiol
# T2 construct: from tissue; host or cells: immature rat uterus, cytosol
# T2 sequence (P06211 1-600): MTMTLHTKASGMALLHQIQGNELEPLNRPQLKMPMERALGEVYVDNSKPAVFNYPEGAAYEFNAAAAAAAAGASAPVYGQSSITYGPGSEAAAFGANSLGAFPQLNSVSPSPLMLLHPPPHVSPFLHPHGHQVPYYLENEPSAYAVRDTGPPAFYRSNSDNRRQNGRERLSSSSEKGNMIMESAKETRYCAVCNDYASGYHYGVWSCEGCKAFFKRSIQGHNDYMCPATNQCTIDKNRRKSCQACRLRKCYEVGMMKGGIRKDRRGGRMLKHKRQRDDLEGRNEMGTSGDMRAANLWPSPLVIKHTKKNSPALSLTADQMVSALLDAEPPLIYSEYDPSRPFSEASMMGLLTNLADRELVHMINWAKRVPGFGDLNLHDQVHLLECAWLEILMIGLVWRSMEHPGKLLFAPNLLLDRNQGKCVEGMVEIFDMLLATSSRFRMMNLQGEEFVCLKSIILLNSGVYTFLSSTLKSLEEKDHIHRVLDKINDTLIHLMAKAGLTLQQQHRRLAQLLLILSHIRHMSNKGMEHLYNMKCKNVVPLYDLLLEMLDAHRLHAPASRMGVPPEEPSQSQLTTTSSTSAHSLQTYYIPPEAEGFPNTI
# Protocol: Immature rat uterine cytosol was incubated at 18° C. for 30 minutes with 5×10^-9 M (^3 H)estradiol in the absence and presence of increasing amounts (10^-9 -10^-5 M) of the test compound or unlabelled estradiol (control). Unbound compounds were then removed with dextran-coated charcoal, and the amounts of estrogen receptor-bound (^3 H)estradiol were measured.
# as §1
# [3] = in vivo; prior art; cited from earlier work
# estrogen receptor [4] = details: prior art; cited from earlier work
# [5] = system: estrogen receptor-positive breast cancer; assay: Potency in relation to estrogen receptor-positive breast cancer (summary statement); details: compared with tamoxifen
# [6] = cited from earlier work
# estrogen receptor (ER) = details: prior art; cited from earlier work
# rat uterine weight = details: compared with tamoxifen; K. E. Allen et al. (1980); cited from earlier work
# estrogen receptor [7] = details: K. E. Allen et al. (1980); cited from earlier work
Structure (SMILES),activity at 1 µM (MCF-7 cells),activity at 0.1 µM (MCF-7 cells),activity at 0.01 µM (MCF-7 cells),other results
"CC/C(=C(/c1ccc(OCCN(C)C)cc1)c1cccc(I)c1)c1ccccc1 [3-Iodotamoxifen, E 1-[4-(2-dimethylaminoethoxy)phenyl]-1-(3-iodophenyl)-2-phenyl-1-butene]",27 ± 5%,68 ± 2%,100 ± 8%,activity in MCF-7 cell growth tests (in words) (MCF-7 cells): about as active as tamoxifen
"CC/C(=C(\c1ccc(Br)cc1)c1ccc(OCCN(C)C)cc1)c1ccccc1 [4-Bromotamoxifen, E 1-[4-(2-dimethylaminoethoxy)phenyl]-1-(4-bromophenyl)-2-phenyl-1-butene]",63 ± 8%,101 ± 8%,130 ± 10%,"activity in MCF-7 cell growth tests (in words) (MCF-7 cells): less active than tamoxifen; RBA (relative binding affinity), MCF-7 whole cells [1]: 0.02; RBA (relative binding affinity), Rat uterine cytosol [2]: 3"
CC/C(=C(\c1ccc(O)cc1)c1ccc(OCCN(C)C)cc1)c1ccccc1 [4-Hydroxytamoxifen],,,,glucuronidation of the hydroxyl group followed by excretion [3]: rapid glucuronidation of the hydroxyl group followed by excretion; anti-estrogen potency in vitro (estrogen receptor [4]): potent anti-estrogen
"CC/C(=C(\c1ccc(I)cc1)c1ccc(OCCN(C)C)cc1)c1ccccc1 [4-Iodotamoxifen, E 1-[4-(2-dimethylaminoethoxy)phenyl]-1-(4-iodophenyl)-2-phenyl-1-butene]",26 ± 2%,42 ± 6%,115 ± 6%,"potency in relation to estrogen receptor-positive breast cancer [5]: greater potency than tamoxifen; RBA (relative binding affinity), MCF-7 whole cells [1]: 0.05; RBA (relative binding affinity), Rat uterine cytosol [2]: 30"
CC/C(=C(\c1ccc(OC)cc1)c1ccc(OCCN(C)C)cc1)c1ccccc1 [4-methoxy derivative],,,,"activity in other tests ([6]; compared with tamoxifen, K. E. Allen et al. (1980)): about the same as tamoxifen"
CC/C(=C(\c1ccc(I)cc1)c1ccc(OCCN(CC)CC)cc1)c1ccccc1 [E-1-[4-(2-Diethylaminoethoxy)phenyl]-1-(4-iodophenyl)-2-phenyl-1-butene],23 ± 2%,35 ± 5%,101 ± 7%,
"CC/C(=C(\c1ccc(I)cc1)c1ccc(OCCN2CCCC2)cc1)c1ccccc1 [Pyrrolidino analogue of 4-iodotamoxifen, E-1-[4-(2-(N-pyrrolidino)ethoxy)phenyl]-1-(4-iodophenyl-2-phenyl-1-butene)]",20 ± 2%,27 ± 3%,84 ± 5%,activity in MCF-7 cell growth tests (in words) (MCF-7 cells): particularly active
"CC/C(=C(\c1ccccc1)c1ccc(OCCN(C)C)cc1)c1ccccc1 [Tamoxifen, Z (1,2-diphenyl)-1-[4-(2-dimethylaminoethoxy)-phenyl]-1-butene]",30 ± 1%,52 ± 1%,,affinity for the estrogen receptor (ER) (estrogen receptor (ER)): relatively low affinity
"CC/C(=C(/c1ccc(Br)cc1)c1ccc(OCCN(C)C)cc1)c1ccccc1 [Z isomer of 4-bromotamoxifen, reference compound]",174 ± 8%,163 ± 4%,110 ± 3%,
"CC/C(=C(/c1ccc(I)cc1)c1ccc(OCCN(C)C)cc1)c1ccccc1 [Z isomer of 4-iodotamoxifen, reference compound]",120 ± 3%,126 ± 6%,99 ± 13%,
CC/C(=C(\c1ccc(Cl)cc1)c1ccc(OCCN(C)C)cc1)c1ccccc1 [chloro],,,,"anti-estrogenic activity, in vivo rat uterine weight tests (rat uterine weight): lower anti-estrogenic activity than tamoxifen; estrogen receptor affinity in vitro, compared with tamoxifen (estrogen receptor [7]): approximately equiactive; potency compared with tamoxifen (report by K. E. Allen et al.) [6]: of no greater potency than tamoxifen"
CC/C(=C(\c1ccc(F)cc1)c1ccc(OCCN(C)C)cc1)c1ccccc1 [fluoro],,,,"anti-estrogenic activity, in vivo rat uterine weight tests (rat uterine weight): lower anti-estrogenic activity than tamoxifen; estrogen receptor affinity in vitro, compared with tamoxifen (estrogen receptor [7]): approximately equiactive; potency compared with tamoxifen (report by K. E. Allen et al.) [6]: of no greater potency than tamoxifen"
CC/C(=C(\c1ccc(C)cc1)c1ccc(OCCN(C)C)cc1)c1ccccc1 [methyl],,,,"anti-estrogenic activity, in vivo rat uterine weight tests (rat uterine weight): lower anti-estrogenic activity than tamoxifen; estrogen receptor affinity in vitro, compared with tamoxifen (estrogen receptor [7]): approximately equiactive"
